“And” between values parts separate entries of the source, which are not always exact repeats. Equal values may be shown once. Inconclusive results and toxic doses are left out.
Test system: P388 leukemia ip, CD2F1 mice, survival T/C
Assay: NCI In Vivo Anticancer Drug Screen. Data for tumor model P388 Leukemia (intraperitoneal) in CD2F1 (CDF1) mice
Conditions: endpoint: median survival time, higher = longer survival
Procedure, shortened: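 Mice carrying the transplanted tumor received test compound or vehicle. Survival was recorded in each group, and the value is the treated-group measurement divided by that of the vehicle-treated control group.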

[1] = dose: 50.0 mg/kg/injection, schedule: Q01DX005 (ip), vehicle: Klucel (hydroxypropylcellulose) (HPC)
[2] = dose: 100.0 mg/kg/injection, schedule: Q01DX005 (ip), vehicle: Klucel (hydroxypropylcellulose) (HPC)
[3] = dose: 200.0 mg/kg/injection, schedule: Q01DX005 (ip), vehicle: Klucel (hydroxypropylcellulose) (HPC)
[4] = dose: 50.0 mg/kg/injection, schedule: Q01DX009 (ip), vehicle: saline
[5] = dose: 100.0 mg/kg/injection, schedule: Q01DX009 (ip), vehicle: saline
[6] = dose: 200.0 mg/kg/injection, schedule: Q01DX009 (ip), vehicle: saline
[7] = dose: 50.0 mg/kg/injection, schedule: Q01DX009 (ip), vehicle: Klucel (hydroxypropylcellulose) (HPC)
[8] = dose: 100.0 mg/kg/injection, schedule: Q01DX009 (ip), vehicle: Klucel (hydroxypropylcellulose) (HPC)
[9] = dose: 200.0 mg/kg/injection, schedule: Q01DX009 (ip), vehicle: Klucel (hydroxypropylcellulose) (HPC)
[10] = dose: 12.5 mg/kg/injection, schedule: Q01DX009 (ip), vehicle: other
[11] = dose: 25.0 mg/kg/injection, schedule: Q01DX009 (ip), vehicle: other
[12] = dose: 50.0 mg/kg/injection, schedule: Q01DX009 (ip), vehicle: other
[13] = dose: 100.0 mg/kg/injection, schedule: Q01DX001 (ip), vehicle: saline with Tween-80
[14] = dose: 200.0 mg/kg/injection, schedule: Q01DX001 (ip), vehicle: saline with Tween-80
[15] = dose: 400.0 mg/kg/injection, schedule: Q01DX001 (ip), vehicle: saline with Tween-80

COc1ccc(-c2csc(=[N+]3CCCCC3)s2)cc1
T/C (dose: 3.13 mg/kg/injection, schedule: Q01DX009 (ip), vehicle: water): 100 % of control
T/C (dose: 6.25 mg/kg/injection, schedule: Q01DX009 (ip), vehicle: water): 105 % of control and 110 % of control

CC(C)=C(C#C[Si](C)(C)C)OS(=O)(=O)C(F)(F)F
T/C (dose: 50.0 mg/kg/injection, schedule: Q01DX005 (ip), vehicle: saline with Tween-80): 100 % of control
T/C (dose: 100.0 mg/kg/injection, schedule: Q01DX005 (ip), vehicle: saline with Tween-80): 101 % of control
T/C (dose: 200.0 mg/kg/injection, schedule: Q01DX005 (ip), vehicle: saline with Tween-80): 101 % of control

COc1cc2c(cc1NC(=O)N(CCCl)N=O)-c1ccccc1C2
T/C (dose: 350.0 mg/kg/injection, schedule: Q04DX003 (ip), vehicle: Klucel (hydroxypropylcellulose) (HPC)): 163 % of control

Nc1cccc2c1C(=O)c1ccc(Cl)cc1C2=O
T/C [1]: 99 % of control
T/C [2]: 94 % of control
T/C [3]: 99 % of control

O=C(O)CNC(=O)/C=C/c1ccc(O)c(O)c1
T/C [1]: 114 % of control
T/C [2]: 100 % of control
T/C [3]: 100 % of control

BrCCc1ccccc1Br
T/C (dose: 50.0 mg/kg/injection, schedule: Q01DX005 (ip), vehicle: distilled water + alcohol): 105 % of control
T/C (dose: 100.0 mg/kg/injection, schedule: Q01DX005 (ip), vehicle: distilled water + alcohol): 97 % of control
T/C (dose: 200.0 mg/kg/injection, schedule: Q01DX005 (ip), vehicle: distilled water + alcohol): 97 % of control

CC[C@H](C)C(NC(=O)[C@H]1N=C(c2csc(C(O)Cc3ccccc3)n2)OC1C)C(=O)OC (stereo not given in full)
T/C (dose: 60.0 mg/kg/injection, schedule: Q01DX005 (ip), vehicle: saline with Tween-80): 99 % of control
T/C (dose: 120.0 mg/kg/injection, schedule: Q01DX005 (ip), vehicle: saline with Tween-80): 98 % of control
T/C (dose: 240.0 mg/kg/injection, schedule: Q01DX005 (ip), vehicle: saline with Tween-80): 100 % of control

CSc1cccnc1SC
T/C [4]: 98 % of control
T/C [5]: 98 % of control
T/C [6]: 92 % of control

C=C=CN1C(C)=CC(=C2C(=O)c3ccccc3C2=O)C=C1C
T/C (dose: 25.0 mg/kg/injection, schedule: Q01DX005 (ip), vehicle: Klucel (hydroxypropylcellulose) (HPC)): 99 % of control and 97 % of control
T/C [1]: 104 % of control and 92 % of control and 96 % of control
T/C (dose: 60.0 mg/kg/injection, schedule: Q01DX005 (ip), vehicle: Klucel (hydroxypropylcellulose) (HPC)): 87 % of control
T/C [2]: 117 % of control and 96 % of control and 97 % of control
T/C (dose: 120.0 mg/kg/injection, schedule: Q01DX005 (ip), vehicle: Klucel (hydroxypropylcellulose) (HPC)): 97 % of control
T/C [3]: 106 % of control and 93 % of control

CC(C)CS(=O)(=O)OCCCCOS(=O)(=O)CC(C)C
T/C [1]: 115 % of control
T/C [2]: 111 % of control

CC(=O)/C(C)=C/O
T/C (dose: 50.0 mg/kg/injection, schedule: Q01DX005 (ip), vehicle: saline): 98 % of control
T/C (dose: 100.0 mg/kg/injection, schedule: Q01DX005 (ip), vehicle: saline): 104 % of control
T/C (dose: 200.0 mg/kg/injection, schedule: Q01DX005 (ip), vehicle: saline): 104 % of control

CCCCCCCCCC(=O)C(=O)c1ccc(O)c(C)c1O
T/C [7]: 94 % of control
T/C [8]: 94 % of control
T/C [9]: 94 % of control

CN1/C(=C/C(=S)SCC(=O)c2ccccc2)C=Cc2ccccc21
T/C (dose: 50.0 mg/kg/injection, schedule: Q04DX002 (ip), vehicle: saline with Tween-80): 94 % of control
T/C (dose: 100.0 mg/kg/injection, schedule: Q04DX002 (ip), vehicle: saline with Tween-80): 90 % of control
T/C (dose: 200.0 mg/kg/injection, schedule: Q04DX002 (ip), vehicle: saline with Tween-80): 88 % of control

COc1cccc2c1C(=O)c1c(O)c3c(c(O)c1C2=O)CC(O)(c1cscn1)CC3O (stereo not given)
T/C (dose: 1.56 mg/kg/injection, schedule: Q01DX009 (ip), vehicle: other): 104 % of control
T/C (dose: 3.13 mg/kg/injection, schedule: Q01DX009 (ip), vehicle: other): 107 % of control
T/C (dose: 6.25 mg/kg/injection, schedule: Q01DX009 (ip), vehicle: other): 101 % of control
T/C [10]: 105 % of control
T/C [11]: 104 % of control
T/C [12]: 113 % of control

Cc1ccc(C(=Nc2ccccc2)N=S(c2ccccc2)c2ccccc2)cc1
T/C (dose: 50.0 mg/kg/injection, schedule: Q04DX003 (ip), vehicle: saline with Tween-80): 97 % of control
T/C (dose: 100.0 mg/kg/injection, schedule: Q04DX003 (ip), vehicle: saline with Tween-80): 92 % of control
T/C (dose: 200.0 mg/kg/injection, schedule: Q04DX003 (ip), vehicle: saline with Tween-80): 97 % of control

CC1CC(C)NC(N=S(=O)(O)c2ccc(N)cc2)[N-]1.[Ag+] (stereo not given)
T/C [7]: 106 % of control
T/C [8]: 100 % of control
T/C [9]: 94 % of control

O=C(c1cc2c(cc1Br)OCO2)N1CCc2cc([N+](=O)[O-])ccc21
T/C [10]: 118 % of control
T/C [11]: 110 % of control
T/C [12]: 105 % of control
T/C (dose: 200.0 mg/kg/injection, schedule: Q01DX009 (ip), vehicle: other): 104 % of control

O=C(O)[C@@H]1[C@H]2C[C@H]3c4[nH]c5ccccc5c4CCN3C[C@@H]2CC[C@@H]1O
T/C (dose: 25.0 mg/kg/injection, schedule: Q01DX009 (ip), vehicle: Klucel (hydroxypropylcellulose) (HPC)): 87 % of control
T/C [7]: 88 % of control
T/C [8]: 100 % of control
T/C [9]: 101 % of control

CCOC(=O)N=C=S
T/C (dose: 50.0 mg/kg/injection, schedule: Q01DX009 (ip), vehicle: saline with Tween-80): 108 % of control
T/C (dose: 100.0 mg/kg/injection, schedule: Q01DX009 (ip), vehicle: saline with Tween-80): 108 % of control

CCc1cccc(CC)c1N1C(=O)C=CC1=O
T/C (dose: 0.5 mg/kg/injection, schedule: Q01DX009 (ip), vehicle: Klucel (hydroxypropylcellulose) (HPC)): 104 % of control
T/C (dose: 1.0 mg/kg/injection, schedule: Q01DX009 (ip), vehicle: Klucel (hydroxypropylcellulose) (HPC)): 99 % of control
T/C (dose: 2.0 mg/kg/injection, schedule: Q01DX009 (ip), vehicle: Klucel (hydroxypropylcellulose) (HPC)): 100 % of control
T/C (dose: 4.0 mg/kg/injection, schedule: Q01DX009 (ip), vehicle: Klucel (hydroxypropylcellulose) (HPC)): 105 % of control
T/C (dose: 8.0 mg/kg/injection, schedule: Q01DX009 (ip), vehicle: Klucel (hydroxypropylcellulose) (HPC)): 101 % of control
T/C (dose: 16.0 mg/kg/injection, schedule: Q01DX009 (ip), vehicle: Klucel (hydroxypropylcellulose) (HPC)): 96 % of control

O=c1c2cc(O)ccc2oc2c(CO)ccc(NCCN3CCCC3)c12
T/C [13]: 93 % of control
T/C [14]: 100 % of control
T/C [15]: 106 % of control

ON=C1c2cc(Cl)ccc2-c2ccc(Cl)cc21
T/C (dose: 6.25 mg/kg/injection, schedule: Q01DX009 (ip), vehicle: saline): 100 % of control
T/C (dose: 12.5 mg/kg/injection, schedule: Q01DX009 (ip), vehicle: saline): 97 % of control
T/C (dose: 25.0 mg/kg/injection, schedule: Q01DX009 (ip), vehicle: saline): 94 % of control
T/C [4]: 90 % of control

C1N2CN3CN1CP(C2)C3
T/C [4]: 112 % of control
T/C [5]: 115 % of control
T/C [6]: 106 % of control

COC(=O)Nc1nc2ccc(Br)cc2[nH]1
T/C (dose: 200.0 mg/kg/injection, schedule: Q04DX003 (oral), vehicle: saline with Tween-80): 115 % of control
T/C (dose: 400.0 mg/kg/injection, schedule: Q04DX003 (oral), vehicle: saline with Tween-80): 107 % of control
T/C (dose: 800.0 mg/kg/injection, schedule: Q04DX003 (oral), vehicle: saline with Tween-80): 104 % of control
T/C (dose: 1600.0 mg/kg/injection, schedule: Q04DX003 (oral), vehicle: saline with Tween-80): 120 % of control

C[N+](C)(C)NP(=O)(N[N+](C)(C)C)Oc1ccccc1
T/C (dose: 60.0 mg/kg/injection, schedule: Q01DX005 (ip), vehicle: saline): 100 % of control and 110 % of control and 93 % of control
T/C (dose: 120.0 mg/kg/injection, schedule: Q01DX005 (ip), vehicle: saline): 103 % of control and 110 % of control (2×)
T/C (dose: 240.0 mg/kg/injection, schedule: Q01DX005 (ip), vehicle: saline): 100 % of control and 104 % of control
T/C (dose: 480.0 mg/kg/injection, schedule: Q01DX005 (ip), vehicle: saline): 104 % of control and 95 % of control

CCOC(=O)C(Cc1csc2ccc(Cl)cc12)NC(C)=O (stereo not given)
T/C [7]: 94 % of control
T/C [8]: 95 % of control
T/C [9]: 99 % of control

COC(=O)Cn1/c(=N\N=C\c2ccccc2)sc2ccccc21
T/C [13]: 90 % of control
T/C [14]: 87 % of control
T/C [15]: 88 % of control
